SMILES strings stand for the structures.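 Assay format: 96-well plates, 48-hour exposure. GI50 = concentration required for 50% inhibition of growth. At the TGI there is no net growth.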 Bounds are passed on as bounds.

Our source for the GI50 and TGI values is PubChem BioAssay (NCI).

Some test systems named below: OVCAR-8 ovarian; NCI-H460 lung; NCI-H522 lung; HCC-2998 colon; MOLT-4 leukemia; UO-31 renal; COLO 205 colon; UACC-257 melanoma; SK-MEL-5 melanoma; SF-295 CNS.
Holding throughout (test): DTP human tumour cell line panel, 48 h

For the molecule `COc1ccc(-c2ccc(/C=N/n3c(COc4ccc(Cl)cc4)n[nH]c3=S)o2)c([N+](=O)[O-])c1`, the GI50 in the experiment with OVCAR-8 ovarian is 24.6 µM; with NCI-H460 lung it was 13 µM; with NCI-H522 lung, 25.7 µM; in the experiment with HCC-2998 colon it was 16.5 µM; in the experiment with MOLT-4 leukemia it was 16.5 µM; in the experiment with UO-31 renal, 33.5 µM. The results for the GI50 with COLO 205 colon and with UACC-257 melanoma were 20.1 µM and 15.9 µM, respectively. Besides, the TGI with OVCAR-8 ovarian is above 100 µM; in the experiment on NCI-H460 lung, 32.8 µM; in the experiment with NCI-H522 lung it was above 100 µM; in the experiment on HCC-2998 colon it was 31.2 µM; in the experiment with MOLT-4 leukemia, 75.4 µM; with UO-31 renal, above 100 µM. Further, the TGI in the experiment on COLO 205 colon was 45.2 µM; in the experiment with UACC-257 melanoma it was 51.4 µM.
Turning to `N#CC1C(N)=NNC12Nc1ccccc1N2` (stereo unspecified), the GI50 with OVCAR-8 ovarian was 0.2 µM; in the experiment on NCI-H460 lung, 13.6 µM; in the experiment on SK-MEL-5 melanoma it was 4.11 µM; in the experiment on HCC-2998 colon it was 31.9 µM; in the experiment with SF-295 CNS, 18.8 µM; in the experiment with UO-31 renal, 11.5 µM. Further, the GI50 in the experiment on COLO 205 colon is 16.5 µM. Besides, the TGI was 21.4 µM with OVCAR-8 ovarian; 38.1 µM with NCI-H460 lung; 21.2 µM with SK-MEL-5 melanoma; above 100 µM in the experiment on HCC-2998 colon; 69.4 µM in the experiment with SF-295 CNS; 84.9 µM with UO-31 renal. Further, the total growth inhibition concentration (TGI) with COLO 205 colon turned out to be 48.9 µM.
For `CC(C)=CC(=O)CC(=O)C(=O)Nc1ccc(Cl)c(Cl)c1`, the TGI with OVCAR-8 ovarian, with NCI-H460 lung, in the experiment on NCI-H522 lung, with HCC-2998 colon, with SF-295 CNS and with MOLT-4 leukemia was above 100 µM throughout. The TGI in the experiment on UO-31 renal, in the experiment with COLO 205 colon and in the experiment on UACC-257 melanoma was above 100 µM throughout.
As for `C=C(C)[C@@H]1CC[C@@]2(C)[C@H]1[C@H]1CCC3[C@@]4(C)CC[C@H](O)C(C)(C)[C@@H]4CC[C@@]3(C)[C@]1(C)C[C@@H]2O` (stereo partly specified), the TGI in the experiment with OVCAR-8 ovarian is above 100 µM; in the experiment on NCI-H460 lung, above 100 µM; in the experiment on NCI-H522 lung, above 100 µM; in the experiment with SK-MEL-5 melanoma, 57.2 µM; in the experiment with SF-295 CNS it was 80.6 µM; in the experiment on MOLT-4 leukemia it was above 100 µM. For the same molecule, the TGI with UACC-257 melanoma is above 100 µM.
As for `O=C1C(=O)N(C2C3CC4CC(C3)CC2C4)C(=O)C(=O)C1c1nc2ccccc2o1` (stereo unspecified), the concentration for total growth inhibition (TGI) in the experiment with OVCAR-8 ovarian, in the experiment on NCI-H460 lung, in the experiment on HCC-2998 colon, in the experiment with SF-295 CNS, in the experiment with UO-31 renal and in the experiment with COLO 205 colon was above 100 µM throughout. The TGI in the experiment on UACC-257 melanoma is above 100 µM.
As for `CN(C)CCNC(=O)c1ccc(Cl)c2c(Nc3ccc(S(N)(=O)=O)cc3)c3ccccc3nc12`, the TGI in the experiment on OVCAR-8 ovarian was 6.84 µM; in the experiment with NCI-H460 lung, 7.28 µM; in the experiment with NCI-H522 lung, 1.94 µM; with SK-MEL-5 melanoma, 11.8 µM; with HCC-2998 colon, 14.8 µM; in the experiment on SF-295 CNS, 15.3 µM. Also, the TGI came out at 11 µM with UO-31 renal, 2.15 µM with COLO 205 colon and 12.7 µM in the experiment with UACC-257 melanoma.
`CCC1CN2CCc3cc(OC)c(OC)cc3C2CC1CC1c2cc(OC)c(OC)cc2CCN1C(=O)CNC(=O)OC(C)(C)C` (stereo unspecified): the TGI with OVCAR-8 ovarian is above 100 µM; in the experiment on NCI-H460 lung, 46.4 µM; in the experiment with SK-MEL-5 melanoma, 21 µM; with HCC-2998 colon, 12.3 µM; in the experiment on SF-295 CNS, 34.4 µM; with MOLT-4 leukemia, 23.1 µM. Also, the TGI with UO-31 renal is 68.3 µM; in the experiment with COLO 205 colon, 12.7 µM; in the experiment on UACC-257 melanoma it was 60 µM.
`FC(F)(F)c1ccc2nc(Nc3ccc(Cl)c(Cl)c3)c(-c3ccccc3)nc2c1`: the TGI in the experiment with OVCAR-8 ovarian, in the experiment on NCI-H460 lung, with HCC-2998 colon, with SF-295 CNS, with MOLT-4 leukemia and in the experiment with UO-31 renal was above 100 µM in each case. Further, the TGI in the experiment on COLO 205 colon and with UACC-257 melanoma was above 100 µM each time.
As to `COc1ccc2cc3n(c2c1)CCc1cc(OC)c(OC)cc1-3`, the TGI with OVCAR-8 ovarian, with NCI-H460 lung, with NCI-H522 lung, with HCC-2998 colon, in the experiment with SF-295 CNS and in the experiment with MOLT-4 leukemia was above 100 µM each time. Further, the TGI in the experiment with UO-31 renal, with COLO 205 colon and in the experiment on UACC-257 melanoma was above 100 µM in each case.
Regarding `CCCCCCCCCCCCC(=O)[O-].CCCCCCCCCCCCC(=O)[O-].CCCCCCCCCCCCC(=O)[O-].CCCCCCCCCCCCC(=O)[O-].[Mo+2].[Mo+2]`, the GI50 in the experiment on OVCAR-8 ovarian was 11.9 µM; with NCI-H460 lung, 17.1 µM; in the experiment on HCC-2998 colon, 19.9 µM; with SF-295 CNS, 6.28 µM; in the experiment on MOLT-4 leukemia it was 3.57 µM; in the experiment on UO-31 renal, 14.7 µM. Further, the GI50 in the experiment with COLO 205 colon was 19.3 µM; in the experiment on UACC-257 melanoma, 26.5 µM. The TGI in the experiment on OVCAR-8 ovarian came to 31.3 µM; in the experiment on NCI-H460 lung, 60.1 µM; in the experiment on HCC-2998 colon, 49.8 µM; in the experiment on SF-295 CNS, 27.7 µM; in the experiment with MOLT-4 leukemia, 22.5 µM; in the experiment with UO-31 renal, 41.9 µM. The concentration for total growth inhibition (TGI) with COLO 205 colon amounted to 46.4 µM; in the experiment with UACC-257 melanoma, 96.1 µM.
As for `Cc1cccc(C)c1NC(=O)CCCC(=O)C1CCC/C1=N\NC(=O)C(=O)NN` (stereo unspecified), the TGI in the experiment on OVCAR-8 ovarian, in the experiment on NCI-H460 lung, in the experiment with SK-MEL-5 melanoma, with HCC-2998 colon, in the experiment on SF-295 CNS and in the experiment with MOLT-4 leukemia was above 100 µM in each case. Also, the TGI with UO-31 renal, in the experiment with COLO 205 colon and in the experiment with UACC-257 melanoma was above 100 µM each time.
With `O=C(Cc1ccccc1)N/N=C(\C1=Nc2ccc([N+](=O)[O-])cc2NC1O)C(O)c1ccc([N+](=O)[O-])cc1` (stereo unspecified), the TGI in the experiment on OVCAR-8 ovarian, in the experiment with NCI-H460 lung, in the experiment with NCI-H522 lung, with SK-MEL-5 melanoma, in the experiment on HCC-2998 colon and with SF-295 CNS was above 100 µM each time. For the same molecule, the TGI in the experiment on UO-31 renal, in the experiment on COLO 205 colon and in the experiment with UACC-257 melanoma was above 100 µM in each case.
On to `CC(C)(Br)C(=O)/C=C/c1ccccc1`, for which the TGI with OVCAR-8 ovarian was 5.2 µM; with NCI-H460 lung, 63.4 µM; with NCI-H522 lung, 0.381 µM; in the experiment on SK-MEL-5 melanoma, 27.5 µM; in the experiment with SF-295 CNS, above 53.6 µM; in the experiment with MOLT-4 leukemia it was above 43.7 µM. The figures for the TGI with UO-31 renal, in the experiment with COLO 205 colon and in the experiment on UACC-257 melanoma were 3.68 µM, 22 µM and 28.8 µM, respectively.
